Reference: paper PMC6158189, “A pharmacological probe identifies cystathionine β-synthase as a new negative regulator for ferroptosis” (Cell Death & Disease, 2018)
Entries after “also recorded” stand apart in the source; their conditions may differ.

Key:
HepG2 cells [1] = experiment: cell viability (CellTiter 96 Aqueous One); assay type: cell-based, human; conditions: 24 h
Procedure: Fig. 4 CH004 arrests the cell cycle at the S phase. a CH004 reduces the cell viability of HEK293T and HepG2 cells. HEK293T or HepG2 cells were treated with indicated concentrations of CH004 for 24 h before the cell number was analyzed using the CellTiter96® Aqueous One Solution Cell Proliferation Assay (Promega, Materials and Methods). The means at each concentration of one representative experiment are shown as percentages of DMSO (control, 100%). Means ± SDs (n = 3). b Overexpression of hCBS or knock-down of hCBS counteracts the growth inhibition exerted by CH004 in HEK293T cells. Indicated HEK293T stable cell lines were treated with the CH004 or DMSO for 24 h. Then, the cell viability was quantified with the CellTiter 96® Aqueous One Solution Cell Proliferation Assay under the standard protocol (Promega). The means at each concentration are shown as percentages of their respective DMSO controls (100%). Means ± SDs (n = 3). The efficacy for CBS overexpression and knock-down in HEK293T cells was determined by Western blotting using an anti-CBS antibody (3E1, 1:2000; Abnova). c CH004 induces cell death in HEK293T and HepG2 cells. […] The means of percentages of dead cells (DMSO, 100%) from three independent samples are shown in d. Means ± SDs (n = 3). e, f Pharmacological inhibition or genetic knock-down of hCBS in HEK293T cells arrests the cell cycle at S phase. HEK293T cells were incubated with indicated compounds for 12 h, and the DNA content was quantified with propidium iodide to analyze the cell cycle distribution by flow cytometry (e). The cell cycle distributions for HEK293T-shNT and HEK293T-shCBS cells were accordingly analyzed and are shown in f. One representative diagram is shown for each condition. The mean percentages of various cell phases from three independent samples are shown in the respective right panels. Means ± SDs (n = 3). […]
Figure S15. […] Indicated HEK293T stable cell lines were treated with CH004 at a concentration of 10 µM for 24 h, and the cell viability was then measured using the CellTiter96® Aqueous One Solution Cell Proliferation Assay (Promega). […]

HepG2 cells [2] = experiment: cellular cystathionine by LC/ESI-MS/MS; assay type: cell-based, human; conditions: 8 h, 100 μM Hcys and 100 μM Ser
Procedure: The effect of CH004 on the level of CTH in HepG2 cells was determined by a liquid chromatography-tandem mass spectrometry (LC/ESI-MS/MS). We followed a condition, which was previously established with LC/ESI-MS/MS[56], for quantification of CTH. […] We selected the 223.1 → 88.1 transition for the quantitative method. Briefly, after the incubation with the compounds for 8 h in the presence of 100 μM Hcys and 100 μM Ser, the HepG2 cells were lysed with liquid nitrogen. 10 μl supernatant was injected to the Ultra Performance Liquid Chromatographic system on a Zorbax XDB C18 reverse phase column (4.6 × 150 mm, temperature-controlled at 10 °C), and eluted isogradiently with a solution mixed from acetonitrile (in the presence of 0.1% formic acid) and water (0.1% formic acid) (2:98, v/v) at a flow rate of 0.4 ml/min in a diode array detector (Agilent G4212A). The Agilent 6470 UHPLC-QqQ/MS system composes of a chomatographic system (Agilent 1260 Infinity) and a Triple Quad mass spectrometer fitted with an ESI source. Data was acquired in the MRM mode using Agilent MassHunter Workstation Data Acquisition Software (revision B.04).
Figure S14. […] All images are representative of three independent experiments. […] Means ± SDs (n=2).

Compound: Cn1nc(Cc2ccccc2)nc2c(=O)n(C)c(=O)nc1-2 [CH004, 3-benzyl-1,6-dimethylpyrimido[5,4-e][1,2,4]triazine-5,7(1H,6H)-dione]
- IC50 (HepG2 cells [1]): ~11 µM
- IC50 (HepG2 cells [1]; Homo sapiens, HepG2, 24 h): 11.3 ± 1.3 µM
- level of cystathionine (CTH) (HepG2 cells [2]): dose-dependently inhibits; also recorded: largely reduced
